Reference: US9464058B2 (Hoffmann-La Roche Inc., priority 2012, dated 2016)
pEC50: −log10 of the molar value.

Assays:
human CYP11B2 = biological target: T1, human CYP11B2 (Homo sapiens, UniProt P19099); experiment: G-402 cellular enzyme assay, human CYP11B2 (aldosterone release, HTRF); assay type: cell-based; conditions: G-402 cells expressing human CYP11B2; 1 μM Deoxycorticosterone; 16 h
T1 construct: expressed in transfected cells
T1 sequence (P19099 25-503): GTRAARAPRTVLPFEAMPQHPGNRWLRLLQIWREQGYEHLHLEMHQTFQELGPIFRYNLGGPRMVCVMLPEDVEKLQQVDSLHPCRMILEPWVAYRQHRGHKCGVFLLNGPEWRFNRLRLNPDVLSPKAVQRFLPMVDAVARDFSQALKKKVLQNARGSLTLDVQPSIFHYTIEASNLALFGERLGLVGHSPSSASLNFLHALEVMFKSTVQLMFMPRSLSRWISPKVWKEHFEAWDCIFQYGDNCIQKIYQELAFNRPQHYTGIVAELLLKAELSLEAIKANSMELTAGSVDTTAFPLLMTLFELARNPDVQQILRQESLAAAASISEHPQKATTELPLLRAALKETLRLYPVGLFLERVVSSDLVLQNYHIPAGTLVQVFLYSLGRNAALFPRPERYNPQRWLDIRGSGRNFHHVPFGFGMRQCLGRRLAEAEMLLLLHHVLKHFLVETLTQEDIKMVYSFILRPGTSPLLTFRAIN
Source text: (§1) Herein we identified the use of the G-402 cell line as a host cell to ectopically express (transiently or stably) enzymes of the CYP11 family. Specifically we developed stable G-402 cells expressing ectopically human CYP11B1, human CYP11B2, human CYP11A1, cynomolgus CYP11B1 or cynomolgus CYP11B2 enzyme activity. Importantly, the identified cell line G-402 expresses co-factors (adrenodoxin and adrenodoxin reductase) important for the activity of the CYP11 family, and no relevant enzyme activity of the CYP11 family (in comparison to H295R cells) was detected in these cells. Therefore the G-402 cell line is uniquely suited as a host cell for the ectopic expression of enzymes from the CYP11 family.
(§2) G-402 cells can be obtained from ATCC(CRL-1440) and were originally derived from a renal leiomyoblastoma.
(§3) The expression plasmids contains the ORF for either human/cyno CYP11B1 or CYP11B2 under the control of a suitable promoter (CMV-promoter) and a suitable resistance marker (neomycin). Using standard techniques the expression plasmid is transfected into G-402 cells and these cells are then selected for expressing the given resistance markers. Individual cell-clones are then selected and assessed for displaying the desired enzymatic activity using 11-Deoxycorticosterone (Cyp11B2) or 11-Deoxycortisol (Cyp11B1) as a substrate.
(§4) G-402 cells expressing CYP11 constructs were established as described above and maintained in McCoy's 5a Medium Modified, ATCC Catalog No. 30-2007 containing 10% FCS and 400 μg/ml G418 (Geneticin) at 37° C. under an atmosphere of 5% CO2/95% air. Cellular enzyme assays were performed in DMEM/F12 medium containing 2.5% charcoal treated FCS and appropriate concentration of substrate (0.3-10 uM 11-Deoxycorticosterone, 11-Deoxycortisol or Corticosterone). For assaying enzymatic activity, cells were plated onto 96 well plates and incubated for 16 h. An aliquot of the supernatant is then transferred and analyzed for the concentration of the expected product (Aldosterone for CYP11B2; Cortisol for CYP11B1). The concentrations of these steroids can be determined using HTRF assays from CisBio analyzing either Aldosterone or Cortisol.
(§5) Inhibition of the release of produced steroids can be used as a measure of the respective enzyme inhibition by test compounds added during the cellular enzyme assay. The dose dependent inhibition of enzymatic activity by a compound is calculated by means of plotting added inhibitor concentrations (x-axes) vs. measured steroid/product level (y-axes). The inhibition is then calculated by fitting the following 4-parameter sigmoidal function (Morgan-Mercer-Flodin (MMF) model) to the raw data points using the least squares method:
(§6) [formula] wherein A is the maximum y value, B is the EC50 factor determined using XLFit, C is the minimum y value and D is the slope value.
(§7) EC50 values for compounds claimed herein were tested with the G402-based assay system described. Cyp11B2 enzyme activity was tested in presence of 1 μM Deoxycorticosterone and variable amounts of inhibitors; Cyp11B1 enzyme activity was tested in presence of 1 μM Deoxycortisol and variable amounts of inhibitors.

human CYP11B1 = biological target: T2, human CYP11B1 (Homo sapiens, UniProt P15538); experiment: G-402 cellular enzyme assay, human CYP11B1 (cortisol release, HTRF); assay type: cell-based; conditions: G-402 cells expressing human CYP11B1; 1 μM Deoxycortisol; 16 h
T2 construct: expressed in transfected cells
T2 sequence (P15538 25-503): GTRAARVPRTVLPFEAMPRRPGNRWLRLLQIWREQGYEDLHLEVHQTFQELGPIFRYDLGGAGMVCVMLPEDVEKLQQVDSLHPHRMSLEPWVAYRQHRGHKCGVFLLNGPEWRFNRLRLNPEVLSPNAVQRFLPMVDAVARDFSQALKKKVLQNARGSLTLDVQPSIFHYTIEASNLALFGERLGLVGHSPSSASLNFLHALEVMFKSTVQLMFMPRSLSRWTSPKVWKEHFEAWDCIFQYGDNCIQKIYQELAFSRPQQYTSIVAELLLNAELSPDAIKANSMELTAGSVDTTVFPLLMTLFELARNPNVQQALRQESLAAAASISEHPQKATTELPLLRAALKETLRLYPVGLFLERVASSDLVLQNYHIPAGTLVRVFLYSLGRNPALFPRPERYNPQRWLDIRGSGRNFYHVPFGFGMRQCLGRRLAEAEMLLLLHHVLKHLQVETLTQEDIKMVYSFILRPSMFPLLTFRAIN
Source text: as §1, §2, §3, §4, §5, §6, §7

Structure (SMILES) | pEC50 (human CYP11B2) | pEC50 (human CYP11B1)
CCn1cncc1C(=O)c1cccc(C#N)c1 [Example 56, 3-(3-Ethyl-3H-imidazole-4-carbonyl)-benzonitrile] | 6.96 | 5.92
CCn1cncc1C(=O)c1ccc(F)c(Cl)c1 [Example 33, (3-Chloro-4-fluoro-phenyl)-(3-ethyl-3H-imidazol-4-yl)-methanone] | 8.43 | 7.50
N#Cc1ccc(C(=O)c2cncn2C2CC2)cc1 [Example 18, 4-(3-Cyclopropyl-3H-imidazole-4-carbonyl)-benzonitrile] | 8.64 | 7.54
N#Cc1cccc(C(=O)c2cncn2C2CC2)c1 [Example 58, 3-(3-Cyclopropyl-3H-imidazole-4-carbonyl)-benzonitrile] | 7.06 | 6.05
C#Cc1ccc(C(=O)c2cncn2CC)cc1 [Example 48, (3-Ethyl-3H-imidazol-4-yl)-(4-ethynyl-phenyl)-methanone] | 8.37 | 7.48
COc1cc(C(=O)c2cncn2C)ccc1SC [Example 50, (3-Methoxy-4-methylsulfanyl-phenyl)-(3-methyl-3H-imidazol-4-yl)-methanone] | 7.83 | 6.16
CCn1cncc1C(=O)c1ccc(N(C)C=O)cc1 [Example 89, N-[4-(3-Ethyl-3H-imidazole-4-carbonyl)-phenyl]-N-methyl-formamide] | 7.53 | 6.13
CCC(C)n1cncc1C(=O)c1ccc(F)c(C#N)c1 (centres unmarked) [Example 65, 5-(3-sec-Butyl-3H-imidazole-4-carbonyl)-2-fluoro-benzonitrile] | 7.67 | 7.05
CCn1cncc1C(=O)c1ccc(C(F)(F)F)cc1 [Example 36, (3-Ethyl-3H-imidazol-4-yl)-(4-trifluoromethyl-phenyl)-methanone] | 7.23 | 5.76
Cn1cncc1C(=O)c1ccc(Cl)cc1 [Example 1, (4-Chloro-phenyl)-(3-methyl-3H-imidazol-4-yl)-methanone] | 7.21 | 6.71
CCn1cncc1C(=O)c1ccc(SC(F)(F)F)cc1 [Example 74, (3-Ethyl-3H-imidazol-4-yl)-(4-trifluoromethylsulfanyl-phenyl)-methanone] | 6.63 | 5.88
N#Cc1ccc(-n2cncc2C(=O)c2ccc(Cl)cc2)cc1Cl [Example 77, 2-Chloro-4-[5-(4-chloro-benzoyl)-imidazol-1-yl]-benzonitrile] | 8.72 | 8.01
CC(=O)N(C)c1ccc(C(=O)c2cncn2C(C)C)cc1 [Example 59, N-[4-(3-Isopropyl-3H-imidazole-4-carbonyl)-phenyl]-N-methyl-acetamide] | 7.29 | 5.30
COc1cc(C(=O)c2cncn2C(C)C)ccc1SC(F)(F)F [Example 81, (3-Isopropyl-3H-imidazol-4-yl)-(3-methoxy-4-trifluoromethylsulfanyl-phenyl)-methanone] | 7.80 | 6.70
O=C(c1ccc(Cl)c(Cl)c1)c1cncn1-c1ccc(Cl)cc1 [Example 91, [3-(4-Chloro-phenyl)-3H-imidazol-4-yl]-(3,4-dichloro-phenyl)-methanone] | 8.38 | 6.36
CCC(C)n1cncc1C(=O)c1cccc(C#N)c1 (centres unmarked) [Example 37, 3-(3-sec-Butyl-3H-imidazole-4-carbonyl)-benzonitrile] | 8.20 | 7.11

Structure (SMILES) | pEC50 (human CYP11B2) | pEC50 (human CYP11B1)
CC(C)n1cncc1C(=O)c1ccc(Br)cc1 [Example 72, (4-Bromo-phenyl)-(3-isopropyl-3H-imidazol-4-yl)-methanone] | 8.28 | 8.00
CC(C)n1cncc1C(=O)c1ccc(F)c(C#N)c1 [Example 64, 2-Fluoro-5-(3-isopropyl-3H-imidazole-4-carbonyl)-benzonitrile] | 6.49 | 6.35
C#Cc1ccc(C(=O)c2cncn2C(C)C)cc1 [Example 54, (4-Ethynyl-phenyl)-(3-isopropyl-3H-imidazol-4-yl)-methanone] | 9.30 | 8.17
CCn1cncc1C(=O)c1ccc(N(C)C(C)=O)cc1 [Example 67, N-[4-(3-Ethyl-3H-imidazole-4-carbonyl)-phenyl]-N-methyl-acetamide] | 6.54 | 5.00
CSc1ccc(C(=O)c2cncn2C)cc1 [Example 43, (3-Methyl-3H-imidazol-4-yl)-(4-methylsulfanyl-phenyl)-methanone] | 7.55 | 5.81
Cn1cncc1C(=O)c1ccc(Br)cc1 [Example 68, (4-Bromo-phenyl)-(3-methyl-3H-imidazol-4-yl)-methanone] | 7.73 | 6.31
CNc1ccc(C(=O)c2cncn2C)cc1 [Example 86, (4-Methylamino-phenyl)-(3-methyl-3H-imidazol-4-yl)-methanone] | 5.79 | 5.43
Cn1cncc1C(=O)c1ccc(C(F)(F)F)cc1 [Example 31, (3-Methyl-3H-imidazol-4-yl)-(4-trifluoromethyl-phenyl)-methanone] | 6.71 | 5.11
N#Cc1cc(C(=O)c2cncn2C2CC2)ccc1F [Example 66, 5-(3-Cyclopropyl-3H-imidazole-4-carbonyl)-2-fluoro-benzonitrile] | 6.35 | 5.65
Cn1cncc1C(=O)c1ccc(F)c(C#N)c1 [Example 45, 2-Fluoro-5-(3-methyl-3H-imidazole-4-carbonyl)-benzonitrile] | 6.24 | 4.95
CC(C)n1cncc1C(=O)c1ccc(Cl)c(Cl)c1 [Example 14, (3,4-Dichloro-phenyl)-(3-isopropyl-3H-imidazol-4-yl)-methanone] | 9.30 | 8.74
CCSc1ccc(C(=O)c2cncn2CC)cc1 [Example 69, (3-Ethyl-3H-imidazol-4-yl)-(4-ethylsulfanyl-phenyl)-methanone] | 7.07 | 6.48
Cn1cncc1C(=O)c1ccc(C#N)c(Cl)c1 [Example 42, 2-Chloro-4-(3-methyl-3H-imidazole-4-carbonyl)-benzonitrile] | 8.13 | 7.05
N#Cc1ccc(-n2cncc2C(=O)c2ccc(Cl)cc2)cc1 [Example 95, 4-[5-(4-Chloro-benzoyl)-imidazol-1-yl]-benzonitrile] | 8.66 | 7.14
Cn1cncc1C(=O)c1ccc(F)c(Cl)c1 [Example 32, (3-Chloro-4-fluoro-phenyl)-(3-methyl-3H-imidazol-4-yl)-methanone] | 7.93 | 6.52
